Results taken from PMC5908784, “Extracellular loops 2 and 3 of the calcitonin receptor selectively modify agonist binding and efficacy” (Biochemical Pharmacology, 2018).
Substitutions are numbered along the chain they refer to. Where a SMILES comes first, the peptide text is derived from it. Bridges are numbered along the chain shown (N, C = ends).

Tests used:
Assay in all cases: ERK1/2 phosphorylation
Type in all cases: cell-based
hCTR G369A = biological target: T1, hCTR G369A (Homo sapiens, UniProt P30988, G369A); conditions: CV1-FlpIn cells, mean ± S.E.M.; for Emax: pERK maximal response; for EC50: pERK, three-parameter logistic fit
T1 construct: c-Myc (N); expressed in transfected cells
T1 sequence (P30988 25-474 G369A): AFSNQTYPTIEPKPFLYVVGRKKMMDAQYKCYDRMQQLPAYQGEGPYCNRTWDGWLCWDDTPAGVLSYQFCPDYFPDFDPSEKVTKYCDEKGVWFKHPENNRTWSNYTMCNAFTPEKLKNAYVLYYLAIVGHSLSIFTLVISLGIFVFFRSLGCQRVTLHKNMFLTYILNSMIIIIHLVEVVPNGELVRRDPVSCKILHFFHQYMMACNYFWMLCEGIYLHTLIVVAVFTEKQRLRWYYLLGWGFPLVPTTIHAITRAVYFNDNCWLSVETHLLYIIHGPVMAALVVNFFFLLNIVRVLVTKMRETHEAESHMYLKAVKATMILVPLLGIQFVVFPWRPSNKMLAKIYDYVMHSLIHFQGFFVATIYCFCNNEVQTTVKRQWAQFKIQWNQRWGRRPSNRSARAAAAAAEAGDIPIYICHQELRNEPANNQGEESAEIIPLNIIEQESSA
Outline: (§1)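 Cells were seeded at 2.5 × 10^4 cells/well and cultured overnight before stimulation. ERK1/2 phosphorylation was normalized to the maximal response to 10% FBS measured at 6 min. EC50 and Emax came from a 3-parameter logistic fit of concentration-response curves.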

hCTR N288A = biological target: T2, hCTR N288A (Homo sapiens, UniProt P30988, N288A); conditions: CV1-FlpIn cells, mean ± S.E.M.; for Emax: pERK maximal response; for EC50: pERK, three-parameter logistic fit
T2 construct: expressed in transfected cells
T2 sequence (P30988 25-474 N288A): T1 sequence (P30988 25-474 G369A) with N264A, A345G
Outline: as §1

hCTR S292A = biological target: T3, hCTR S292A (Homo sapiens, UniProt P30988, S292A); conditions: CV1-FlpIn cells, mean ± S.E.M.; for Emax: pERK maximal response; for EC50: pERK, three-parameter logistic fit
T3 construct: expressed in transfected cells
T3 sequence (P30988 25-474 S292A): T1 sequence (P30988 25-474 G369A) with S268A, A345G
Outline: as §1

hCTR V293A = biological target: T4, hCTR V293A (Homo sapiens, UniProt P30988, V293A); conditions: CV1-FlpIn cells, mean ± S.E.M.; for Emax: pERK maximal response; for EC50: pERK, three-parameter logistic fit
T4 construct: c-Myc (N); expressed in transfected cells
T4 sequence (P30988 25-474 V293A): T1 sequence (P30988 25-474 G369A) with V269A, A345G
Outline: as §1

hCTR P363A = biological target: T5, hCTR P363A (Homo sapiens, UniProt P30988, P363A); conditions: CV1-FlpIn cells, mean ± S.E.M.; for Emax: pERK maximal response
T5 construct: expressed in transfected cells
T5 sequence (P30988 25-474 P363A): T1 sequence (P30988 25-474 G369A) with P339A, A345G
Outline: as §1

EC50 (hCTR G369A)	EC50 (hCTR N288A)	EC50 (hCTR S292A)	EC50 (hCTR V293A)	EC50 (hCTR P363A; pERK, three-parameter logistic fit)	SMILES	Emax (hCTR G369A)	Emax (hCTR N288A)	Emax (hCTR S292A)	Emax (hCTR V293A)	Emax (hCTR P363A)
81.3 nM	97.7 nM	20.9 nM	52.5 nM	–	CC(C)C[C@H](NC(=O)CNC(=O)[C@H](C)NC(=O)[C@H](CC(C)C)NC(=O)[C@H](CCCNC(=N)N)NC(=O)[C@H](Cc1cnc[nH]1)NC(=O)[C@@H](NC(=O)[C@@H](NC(=O)[C@@H]1CSSC[C@H](NC(=O)[C@H](C)N)C(=O)N[C@@H](CC(=O)O)C(=O)N[C@@H]([C@@H](C)O)C(=O)N[C@@H](C)C(=O)N[C@@H]([C@@H](C)O)C(=O)N1)C(C)C)[C@@H](C)O)C(=O)N[C@@H](CC(C)C)C(=O)N[C@@H](CO)C(=O)N[C@@H](CCCNC(=N)N)C(=O)N[C@@H](CO)C(=O)NCC(=O)NCC(=O)N[C@H](C(=O)N[C@H](C(=O)N[C@@H](CCCCN)C(=O)N[C@@H](CC(N)=O)C(=O)N[C@@H](CC(N)=O)C(=O)N[C@@H](Cc1ccccc1)C(=O)N[C@H](C(=O)N1CCC[C@H]1C(=O)N[C@H](C(=O)N[C@@H](CC(N)=O)C(=O)N[C@H](C(=O)NCC(=O)N[C@@H](CO)C(=O)N[C@@H](CCCCN)C(=O)N[C@@H](C)C(=O)N[C@@H](Cc1ccccc1)C(N)=O)C(C)C)[C@@H](C)O)C(C)C)C(C)C)C(C)C [hαCGRP]	87 ± 14%	110 ± 10%	80 ± 12%	149 ± 22%	–
5.25 nM	2.95 nM	0.55 nM	3.16 nM	5.75 nM	CSCC[C@H](NC(=O)CNC(=O)[C@H](CO)NC(=O)[C@H](Cc1ccccc1)NC(=O)[C@H](CCCNC(=N)N)NC(=O)[C@H](Cc1c[nH]cn1)NC(=O)[C@H](Cc1ccccc1)NC(=O)[C@H](CC(N)=O)NC(=O)[C@H](CC(N)=O)NC(=O)[C@H](CC(C)C)NC(=O)[C@H](CC(N)=O)NC(=O)[C@H](CCCNC(=N)N)NC(=O)[C@H](Cc1c[nH]c2ccccc12)NC(=O)[C@H](Cc1ccc(O)cc1)NC(=O)[C@H](C)NC(=O)[C@H](CO)NC(=O)[C@H](CC(C)C)NC(=O)[C@@H](NC(=O)[C@@H]1CSSC[C@H](N)C(=O)N[C@@H](CO)C(=O)N[C@@H](CC(N)=O)C(=O)N[C@@H](CC(C)C)C(=O)N[C@@H](CO)C(=O)N[C@@H]([C@@H](C)O)C(=O)N1)C(C)C)C(=O)NCC(=O)N[C@@H](Cc1ccccc1)C(=O)NCC(=O)N1CCC[C@H]1C(=O)N[C@@H](CCC(=O)O)C(=O)N[C@H](C(=O)N1CCC[C@H]1C(N)=O)[C@@H](C)O [pCT] (H-CSNLSTCVLSAYWRNLNNFHRFSGMGFGPETP-NH2; disulfide 1-7)	128 ± 8%	135 ± 11%	104 ± 7%	136 ± 11%	39 ± 2%
–	–	–	–	–	CC(C)C[C@H](NC(=O)[C@H](CCCCN)NC(=O)CNC(=O)[C@H](CC(C)C)NC(=O)[C@@H](NC(=O)[C@@H]1CSSC[C@H](N)C(=O)N[C@@H](CO)C(=O)N[C@@H](CC(N)=O)C(=O)N[C@@H](CC(C)C)C(=O)N[C@@H](CO)C(=O)N[C@@H]([C@@H](C)O)C(=O)N1)C(C)C)C(=O)N[C@@H](CO)C(=O)N[C@@H](CCC(N)=O)C(=O)N[C@@H](CCC(=O)O)C(=O)N[C@@H](CC(C)C)C(=O)N[C@@H](Cc1c[nH]cn1)C(=O)N[C@@H](CCCCN)C(=O)N[C@@H](CC(C)C)C(=O)N[C@@H](CCC(N)=O)C(=O)N[C@H](C(=O)N[C@@H](Cc1ccc(O)cc1)C(=O)N1CCC[C@H]1C(=O)N[C@@H](CCCNC(=N)N)C(=O)N[C@H](C(=O)N[C@@H](CC(N)=O)C(=O)N[C@H](C(=O)NCC(=O)N[C@@H](CO)C(=O)NCC(=O)N[C@H](C(=O)N1CCC[C@H]1C(N)=O)[C@@H](C)O)[C@@H](C)O)[C@@H](C)O)[C@@H](C)O [sCT]	115 ± 4%	127 ± 13%	121 ± 7%	135 ± 12%	95 ± 5%
–	–	–	–	–	CC[C@H](C)[C@H](NC(=O)[C@H](C)NC(=O)[C@@H](NC(=O)[C@H](CCC(N)=O)NC(=O)[C@@H]1CCCN1C(=O)[C@H](Cc1ccccc1)NC(=O)[C@@H](NC(=O)[C@H](Cc1c[nH]cn1)NC(=O)[C@H](Cc1ccccc1)NC(=O)[C@H](CCCCN)NC(=O)[C@H](CC(N)=O)NC(=O)[C@H](Cc1ccccc1)NC(=O)[C@H](CC(=O)O)NC(=O)[C@H](CCC(N)=O)NC(=O)[C@@H](NC(=O)[C@H](Cc1ccc(O)cc1)NC(=O)[C@@H](NC(=O)CNC(=O)[C@H](CC(C)C)NC(=O)[C@H](CCSC)NC(=O)[C@@H]1CSSC[C@H](N)C(=O)NCC(=O)N[C@@H](CC(N)=O)C(=O)N[C@@H](CC(C)C)C(=O)N[C@@H](CO)C(=O)N[C@@H]([C@@H](C)O)C(=O)N1)[C@@H](C)O)[C@@H](C)O)[C@@H](C)O)[C@@H](C)O)C(=O)NCC(=O)N[C@H](C(=O)NCC(=O)N[C@@H](C)C(=O)N1CCC[C@H]1C(N)=O)C(C)C [hCT]	141 ± 9%	137 ± 8%	116 ± 11%	130 ± 8%	64 ± 6%
–	–	–	–	–	CC(C)C[C@H](NC(=O)[C@H](CC(N)=O)NC(=O)[C@H](CC(N)=O)NC(=O)[C@H](CO)NC(=O)[C@H](CO)NC(=O)[C@H](CCCNC(=N)N)NC(=O)[C@@H](NC(=O)[C@H](CC(C)C)NC(=O)[C@H](Cc1ccccc1)NC(=O)[C@H](CC(N)=O)NC(=O)[C@H](C)NC(=O)[C@H](CC(C)C)NC(=O)[C@H](CCCNC(=N)N)NC(=O)[C@H](CCC(N)=O)NC(=O)[C@@H](NC(=O)[C@H](C)NC(=O)[C@@H]1CSSC[C@H](NC(=O)[C@@H](N)CCCCN)C(=O)N[C@@H](CC(N)=O)C(=O)N[C@@H]([C@@H](C)O)C(=O)N[C@@H](C)C(=O)N[C@@H]([C@@H](C)O)C(=O)N1)[C@@H](C)O)C(C)C)C(=O)NCC(=O)N1CCC[C@H]1C(=O)N[C@H](C(=O)N[C@@H](CC(C)C)C(=O)N1CCC[C@H]1C(=O)N1CCC[C@H]1C(=O)N[C@H](C(=O)N[C@@H](CC(N)=O)C(=O)N[C@H](C(=O)NCC(=O)N[C@@H](CO)C(=O)N[C@@H](CC(N)=O)C(=O)N[C@H](C(=O)N[C@@H](Cc1ccc(O)cc1)C(N)=O)[C@@H](C)O)C(C)C)[C@@H](C)O)C(C)C [rAmy]	63 ± 8%	79 ± 7%	96 ± 12%	67 ± 8%	28 ± 9%
